Source: ChEMBL document CHEMBL1201862, “PubChem BioAssay data set” (2004)
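48-hour exposure; five concentrations; linearly interpolated endpoints. The concentration for 50% growth inhibition is given as GI50.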 Active and inactive are the calls of the source. Cut-off read from the data, not from the text of the source: active = GI50 up to about 1.1 µM and inactive = higher.

Legend:
Experiment in all cases: NCI-60 cell line screen, 48 h
Hs-578T = system: Hs-578T
HL-60 = system: HL-60
NCI-H226 = system: NCI-H226
IGROV-1 = system: IGROV-1
MDA-MB-231 = system: MDA-MB-231
EKVX = system: EKVX
A549 = system: A549
HOP-62 = system: HOP-62
HCT-116 = system: HCT-116
HOP-92 = system: HOP-92
ACHN = system: ACHN
SK-MEL-28 = system: SK-MEL-28
MDA-MB-435 = system: MDA-MB-435
NCI-H522 = system: NCI-H522
NCI-H23 = system: NCI-H23
MDA-N = system: MDA-N
DU-145 = system: DU-145
OVCAR-5 = system: OVCAR-5
SK-OV-3 = system: SK-OV-3
LXFL 529 = system: LXFL 529

SMILES	GI50 (Hs-578T)	GI50 (HL-60)	GI50 (NCI-H226)	GI50 (IGROV-1)	GI50 (MDA-MB-231)	GI50 (EKVX)	GI50 (A549)	GI50 (HOP-62)	GI50 (HCT-116)	GI50 (HOP-92)	GI50 (ACHN)	GI50 (SK-MEL-28)	GI50 (MDA-MB-435)	GI50 (NCI-H522)	GI50 (NCI-H23)	GI50 (MDA-N)	GI50 (DU-145)	GI50 (OVCAR-5)	GI50 (SK-OV-3)	GI50 (LXFL 529)
O=C1NC(c2ccccc2Cl)Nc2ccccc21 (stereo not drawn)	9.53 µM (inactive)	2.91 µM (inactive)	41.8 µM (inactive)	22.5 µM (inactive)	33.2 µM (inactive)	27.7 µM (inactive)	32.5 µM (inactive)	35.4 µM (inactive)	7.24 µM (inactive)	44.4 µM (inactive)	29.5 µM (inactive)	24.1 µM (inactive)	1.65 µM (inactive)	12.3 µM (inactive)	34.2 µM (inactive)	1.47 µM (inactive)	30.8 µM (inactive)	> 100 µM (inactive)	31 µM (inactive)	–
NC(=O)N(O)c1cccc(Br)c1	> 100 µM (inactive)	> 100 µM (inactive)	> 100 µM (inactive)	> 100 µM (inactive)	> 100 µM (inactive)	> 100 µM (inactive)	> 100 µM (inactive)	> 100 µM (inactive)	> 100 µM (inactive)	> 100 µM (inactive)	> 100 µM (inactive)	> 100 µM (inactive)	> 100 µM (inactive)	> 100 µM (inactive)	> 100 µM (inactive)	> 100 µM (inactive)	> 100 µM (inactive)	> 100 µM (inactive)	> 100 µM (inactive)	–
C1=C(c2ccccc2)CN(c2ccccc2)OC1	–	54.8 µM (inactive)	> 100 µM (inactive)	> 100 µM (inactive)	–	86.9 µM (inactive)	85.9 µM (inactive)	> 100 µM (inactive)	–	–	63.2 µM (inactive)	79.8 µM (inactive)	–	18.6 µM (inactive)	89.7 µM (inactive)	–	–	26.8 µM (inactive)	> 100 µM (inactive)	64 µM (inactive)
Brc1ccc2[nH]cc(-c3csc(-c4c[nH]c5ccc(Br)cc45)n3)c2c1	3.79 µM (inactive)	3.24 µM (inactive)	2.1 µM (inactive)	1.58 µM (inactive)	1.66 µM (inactive)	1.48 µM (inactive)	2.69 µM (inactive)	3.25 µM (inactive)	1.68 µM (inactive)	1.69 µM (inactive)	1.93 µM (inactive)	2.11 µM (inactive)	1.93 µM (inactive)	1.66 µM (inactive)	2.27 µM (inactive)	2.25 µM (inactive)	2.52 µM (inactive)	1.97 µM (inactive)	2.5 µM (inactive)	–
CN1CCN(c2c(Cl)cc(Cl)c3[nH]c4ccccc4c(=O)c23)CC1	4.8 µM (inactive)	2.28 µM (inactive)	9.77 µM (inactive)	4.46 µM (inactive)	10.3 µM (inactive)	10.5 µM (inactive)	5.56 µM (inactive)	6.15 µM (inactive)	3.21 µM (inactive)	1.35 µM (inactive)	2.9 µM (inactive)	13.1 µM (inactive)	5.71 µM (inactive)	2.77 µM (inactive)	8.87 µM (inactive)	8.41 µM (inactive)	5.4 µM (inactive)	10.2 µM (inactive)	11.1 µM (inactive)	–
COc1ccc(-c2cc(-c3ccccc3)[nH]c(=S)c2C#N)cc1	39.2 µM (inactive)	46.8 µM (inactive)	31.4 µM (inactive)	26.4 µM (inactive)	32.4 µM (inactive)	55.8 µM (inactive)	18.8 µM (inactive)	3.85 µM (inactive)	34.9 µM (inactive)	44.3 µM (inactive)	33 µM (inactive)	20 µM (inactive)	20.1 µM (inactive)	25.5 µM (inactive)	21.8 µM (inactive)	31.1 µM (inactive)	52.2 µM (inactive)	62.1 µM (inactive)	30.8 µM (inactive)	–
NC(=O)N/N=C(\CCC(=O)N(Cc1ccccc1)Cc1ccccc1)CC(=O)c1ccc(F)cc1	–	> 100 µM (inactive)	> 100 µM (inactive)	> 100 µM (inactive)	–	> 100 µM (inactive)	37.1 µM (inactive)	> 100 µM (inactive)	> 100 µM (inactive)	–	> 100 µM (inactive)	> 100 µM (inactive)	–	–	> 100 µM (inactive)	–	–	> 100 µM (inactive)	> 100 µM (inactive)	> 100 µM (inactive)
Nc1ccc(C(=O)N/C(=C\c2ccc3c(c2)OCO3)c2nc3ccccc3s2)cc1	–	–	–	14.6 µM (inactive)	–	12.9 µM (inactive)	15.5 µM (inactive)	–	–	12.3 µM (inactive)	14.2 µM (inactive)	13.2 µM (inactive)	–	13.8 µM (inactive)	> 10 µM (inactive)	–	–	22 µM (inactive)	21.3 µM (inactive)	10.6 µM (inactive)
O=C(CCCl)NN=C1NCCCCN1	> 100 µM (inactive)	> 100 µM (inactive)	> 100 µM (inactive)	> 100 µM (inactive)	> 100 µM (inactive)	> 100 µM (inactive)	> 100 µM (inactive)	> 100 µM (inactive)	> 100 µM (inactive)	> 100 µM (inactive)	> 100 µM (inactive)	> 100 µM (inactive)	> 100 µM (inactive)	> 100 µM (inactive)	> 100 µM (inactive)	> 100 µM (inactive)	> 100 µM (inactive)	> 100 µM (inactive)	> 100 µM (inactive)	–
C=CCSC1=N/C(=C\c2ccccc2)C(=O)N1CC=C	43 µM (inactive)	5.24 µM (inactive)	28.5 µM (inactive)	> 100 µM (inactive)	39.9 µM (inactive)	22.5 µM (inactive)	44.6 µM (inactive)	99.1 µM (inactive)	29.8 µM (inactive)	17.1 µM (inactive)	41.8 µM (inactive)	> 83.8 µM (inactive)	36.8 µM (inactive)	31.2 µM (inactive)	56 µM (inactive)	30.3 µM (inactive)	> 86.5 µM (inactive)	> 100 µM (inactive)	> 71.6 µM (inactive)	–
COC(=O)C(C(=O)c1ccccc1)C(C(=O)C(=O)Nc1ccc(OC)cc1OC)C(=O)C(=O)c1ccc(C)cc1 (stereo not drawn)	–	> 100 µM (inactive)	> 100 µM (inactive)	> 100 µM (inactive)	–	> 100 µM (inactive)	> 100 µM (inactive)	> 100 µM (inactive)	> 100 µM (inactive)	–	> 100 µM (inactive)	> 100 µM (inactive)	–	> 100 µM (inactive)	> 100 µM (inactive)	–	–	> 100 µM (inactive)	> 100 µM (inactive)	> 100 µM (inactive)
Brc1ccc2[nH]cc(-c3csc(-c4c[nH]c5ccccc45)n3)c2c1	4.81 µM (inactive)	5.64 µM (inactive)	1.82 µM (inactive)	2.2 µM (inactive)	2.17 µM (inactive)	2.69 µM (inactive)	3.67 µM (inactive)	4.34 µM (inactive)	2.47 µM (inactive)	3 µM (inactive)	5.5 µM (inactive)	5.06 µM (inactive)	3.84 µM (inactive)	1.81 µM (inactive)	2.39 µM (inactive)	2.88 µM (inactive)	3.52 µM (inactive)	2.02 µM (inactive)	7.52 µM (inactive)	–
CN(C)CCCn1c2ccccc2c2cnccc21	42.7 µM (inactive)	23.6 µM (inactive)	24.1 µM (inactive)	64.7 µM (inactive)	30.8 µM (inactive)	36.1 µM (inactive)	33.6 µM (inactive)	60.4 µM (inactive)	19.7 µM (inactive)	94.6 µM (inactive)	33.8 µM (inactive)	48.9 µM (inactive)	28.3 µM (inactive)	23.8 µM (inactive)	39.5 µM (inactive)	25.2 µM (inactive)	43.9 µM (inactive)	38.4 µM (inactive)	66.2 µM (inactive)	–
CC1=C(/C=C/C(C)=C/C=C/C(C)=C/C(=O)OC2CC(n3cc(F)c(=O)[nH]c3=O)OC2CO)C(C)(C)CCC1 (stereo not drawn)	6.62 µM (inactive)	0.628 µM (active)	25.4 µM (inactive)	7.13 µM (inactive)	9.73 µM (inactive)	13.9 µM (inactive)	0.153 µM (active)	0.158 µM (active)	0.748 µM (active)	11.3 µM (inactive)	0.082 µM (active)	7.73 µM (inactive)	3.97 µM (inactive)	1.17 µM (inactive)	2.75 µM (inactive)	6.82 µM (inactive)	0.476 µM (active)	17.3 µM (inactive)	2.05 µM (inactive)	–
CCO/C([O-])=C(\C(=O)c1ccc([N+](=O)[O-])cc1)[n+]1c(C)n(C)c2ccccc21	–	> 100 µM (inactive)	> 100 µM (inactive)	> 100 µM (inactive)	–	> 100 µM (inactive)	> 100 µM (inactive)	> 100 µM (inactive)	> 100 µM (inactive)	–	–	> 100 µM (inactive)	–	> 100 µM (inactive)	> 100 µM (inactive)	–	–	> 100 µM (inactive)	> 100 µM (inactive)	> 100 µM (inactive)
Cc1cccc2c(N)c3cccc(C(=O)NCCCNCCN)c3nc12	0.23 µM (active)	12.2 µM (inactive)	0.311 µM (active)	4.83 µM (inactive)	0.593 µM (active)	13.8 µM (inactive)	0.596 µM (active)	3.53 µM (inactive)	7.5 µM (inactive)	5.61 µM (inactive)	10.5 µM (inactive)	15.5 µM (inactive)	15.5 µM (inactive)	< 0.01 µM (active)	1.01 µM (active)	13.7 µM (inactive)	3.59 µM (inactive)	11 µM (inactive)	23.2 µM (inactive)	–
